The values below come from patent publication US20230293409A1, “Compositions Comprising Antimicrobials and (Bio)-Alkanediols for Skin Protection” (Symrise AG, priority 2020, published 2023).

One data set relates to Staphylococcus aureus. The experiment in a line: Minimum Inhibitory Concentration (MIC) test and Kull synergy index. It is filed as cell-based.
Data set [1] is described as follows: Maximum solubility of alkanediols in water. It is filed as physicochemical. The conditions noted are these: ambient temperature after 24 h storage at 5° C.; visual observation.
Text: For the determination of the maximum water solubility of an alkanediol, water and different concentrations of the respective alkanediol were blended by stirring. […] The determination of whether the alkanediol has dissolved in water is based entirely on visual observation.
A further data set deals with human sebaceous glands. The experiment in a line: Sebum control: micro-dissected cultured sebaceous glands, lipids normalized upon proteins. It is filed as cell-based. The settings on record: for sebum reduction: human sebaceous glands cultured six days, compared to untreated control, FIG. 2, single donor. The procedure:
Additional tests were performed with human sebaceous glands in order to verify the modulatory activity of different 1,2-alkanediols on sebum secretion. Several microbial species on the skin are lipid dependent and feed on the human sebum (e.g., Corynebacterium, Propionibacterium). Accordingly, sebum reduction can indirectly support the reduction of microorganisms on the skin and in this way also indirectly support e.g., dandruff or acne reduction. For these experiments sebaceous glands had been micro-dissected and cultured with medium. The medium without any supplement served as untreated control. The medium with 5 μM Capsaicin served as positive control. Additionally, the culture medium was supplemented with different concentrations of alkanediols. After six days the sebaceous glands were collected and lipids and proteins quantified. The total lipid amount being representative of sebum production was obtained by normalizing the quantified lipids upon the quantified proteins (i.e., mg of lipids/mg of proteins).

A further data set deals with Corynebacterium jeikeium. The experiment in a line: Minimum Inhibitory Concentration (MIC) test. The conditions noted are these: single substance (Tables 1, 2). It is filed as cell-based. As to the method:
(§1) The Minimum Inhibitory Concentration (MIC) test is a test on growth inhibition. The estimation of MICs is executed in 96 well plates. Through the comparison of bacterial growth with positive and negative controls via optical density (OD), different concentrations of given test substances are evaluated. Bacteria were cultivated under adjusted conditions based on information of the German Collection of Microorganisms and Cell Cultures (DSMZ) and stored in 50% glycerol prior to use. Afterwards, the following method was applied: Growth medium (according to microorganism) was added to each well of the microplate. Then, the test-substances were added in different concentrations, positive controls (water controls only with medium) and negative controls (benchmarks according to organism). Finally, the microorganisms were added in a concentration of 10^6 CFU/ml (CFU=colony forming units). The incubation of the microplates was carried out at appropriate conditions. According to the resulting growth, substance concentrations are labelled either as inhibiting or not and MIC is defined as the lowest concentration where a complete growth inhibition is visible. Experiments at concentration limits (highest concentration labelled as growth and lowest concentration labelled as inhibiting) are performed at least twice.

A further data set concerns Candida albicans. The experiment in a line: Minimum Inhibitory Concentration (MIC) test. It is filed as cell-based. The conditions noted are these: single substance (Tables 1, 2). As to the method:
as §1

The test system of another data set is Propionibacterium acnes. Briefly: Minimum Inhibitory Concentration (MIC) test. It is filed as cell-based. The conditions noted are these: Cutibacterium acnes, single substance (Tables 1, 2). The procedure: as §1
Another data set has as its system Staphylococcus hominis. Briefly: Minimum Inhibitory Concentration (MIC) test. It is filed as cell-based. The conditions noted are these: single substance (Tables 1, 2). As to the method:
as §1

A further data set relates to Escherichia coli. Briefly: Minimum Inhibitory Concentration (MIC) test. It is filed as cell-based. The settings on record: single substance (Tables 1, 2). As to the method: as §1
The mark [2] stands for this setting: Table 3, Component B alone, read-out: MIC Component B in ppm.

In brackets after ≈: the same amount, converted by molar mass. Where two headings read alike, the source gives them in different places.

On to `CCCCCCCC(=O)OCC(O)CO` (stereo not shown) [Glyceryl caprylate], for which the MIC with Staphylococcus aureus (setting [2]) worked out at 2500 µg/mL.

With `CCCCCCCC(O)CO` (stereo not shown) [1,2-Nonanediol, 1,2-nonanediol], in data set [1], the “Maximum solubility in water (% by weight)” value is given as 0.1 % by weight. Moreover, the “concentration dependency of sebum reduction” value with human sebaceous glands (different concentrations, FIG. 3, single donor different from FIG. 2) is recorded as “experimentally confirmed”. Moreover, in the data set on Staphylococcus aureus (Table 4, Component A alone), the “MIC Component A in ppm” value is 1000 ppm. On to `CCCCCCC(O)C(C)O` (stereo not shown) [2,3-Nonanediol, 2,3-nonanediol], for which the “Maximum solubility in water (% by weight)” value in data set [1] stood at 0.3 % by weight. Also, the sebum reduction in the data set with human sebaceous glands was 40%.

In the case of `CCCCCCCCCC(O)CO` (stereo not shown) [1,2-Undecanediol, 1,2-undecanediol], the MIC with Corynebacterium jeikeium came to 250 µg/mL (≈ 1330 µM); with Candida albicans, 64 µg/mL (≈ 340 µM); against Propionibacterium acnes, 250 µg/mL (≈ 1330 µM); with Staphylococcus hominis, 125 µg/mL (≈ 664 µM); in the data set with Escherichia coli, 250 µg/mL (≈ 1330 µM); in the data set with Staphylococcus aureus (single substance (Tables 1, 2), read-out: Minimum Inhibitory Concentration (MIC)), 125 µg/mL. This compound also had a sebum reduction with human sebaceous glands of 45%. As for `CCCCC(O)CO` (stereo not shown) [1,2-Hexandiol, 1,2-hexanediol], the “Maximum solubility in water (% by weight)” value in data set [1] is on record as 50 % by weight.

As to `CC(C)(C)C(=O)C(Oc1ccc(Cl)cc1)n1ccnc1` (stereo not shown) [Climbazole], the MIC with Staphylococcus aureus (setting [2]) came out at 250 µg/mL. On to `CCCCC(CC)COCC(O)CO` (stereo not shown) [Ethylhexylglycerin], for which the “MIC Component B in ppm” value with Staphylococcus aureus (Table 3, Component B alone) was found to be 2000 ppm. As for `CCCCCCCC(=O)NO` [Caprylhydroxamic acid], the MIC with Staphylococcus aureus (setting [2]) amounted to 1000 µg/mL. Also, in the data set with Staphylococcus aureus (Table 4, Component B alone), the “MIC Component B in ppm” value is 1000 ppm. As for `CCCCCC(O)CO` (stereo not shown) [1,2-Heptanediol, 1,2-heptanediol], the “Maximum solubility in water (% by weight)” value in data set [1] was 2.5 % by weight. Moreover, the sebum reduction in the data set with human sebaceous glands is reported as 20%. As to `CCCCCCC(O)CO` (stereo not shown) [1,2-Octandiol, 1,2-octanediol], the “Maximum solubility in water (% by weight)” value in data set [1] is on record as 0.5 % by weight. Take `CCCCCC(O)C(C)O` (stereo not shown) [2,3-Octanediol, 2,3-octanediol]: the “Maximum solubility in water (% by weight)” value in data set [1] stood at 1.5 % by weight. With `CCCCC(O)C(C)O` (stereo not shown) [2,3-Heptanediol, 2,3-heptanediol], the “Maximum solubility in water (% by weight)” value in data set [1] was found to be 3.6 % by weight. In the case of `OCc1ccccc1` [Benzyl Alcohol], in the data set with Staphylococcus aureus (setting [2]), the MIC came to 5000 µg/mL. The “MIC Component B in ppm” value in the data set with Staphylococcus aureus (Table 4, Component B alone) stood at 5000 ppm.
